Measurements taken from patent publication US20200270309A1, “MALEIMIDE GROUP-MODIFIED ANGIOGENESIS INHIBITOR HM-1 AND USE THEREOF” (NANJING ANJI BIOLOGICAL TECHNOLOGY CO., LTD, priority 2017, published 2020).
Where two headings read alike, the source gives them in different places. Peptide text beside a SMILES is read from it. * marks the point of attachment. Hexanoyl(6-maleimido) = O=C1C=CC(=O)N1CCCCCC(=O)*; Propanoyl(3-maleimido) = O=C1C=CC(=O)N1CCC(=O)*; X40 = O=C1C=CC(=O)N1c1ccc(CCCCCCCCC(=O)*)cc1; X5 = O=C1C=CC(=O)N1CCOCCOCCOCCOCCOCCOCC(=O)*; X53 = O=C1C=CC(=O)N1CCOCCOCCOCCOCCCCCCC(=O)*; X27 = O=C1C=CC(=O)N1CCOCCOCCOCCOCCCCCC(=O)*; X43 = O=C1C=CC(=O)N1c1ccc(CCCCCCC(=O)*)cc1; X35 = O=C1C=CC(=O)N1CCOCCOCCOCCOCC(=O)*; X56 = O=C1C=CC(=O)N1c1ccc(CCC(=O)*)cc1; X81 = O=C1C=CC(=O)N1c1ccccc1CCCC(=O)*; X80 = O=C1C=CC(=O)N1c1ccccc1CCC(=O)*; X3 = O=C1C=CC(=O)N1CCOCCOCCCCC(=O)*; X12 = O=C1C=CC(=O)N1CCOCCCCC(=O)*; X57 = O=C1C=CC(=O)N1CCCCCCCC(=O)*

Experiment: Half-lives and pharmacokinetic parameters of polypeptides vs HM-1
Conditions: in vivo
[1] = read-out: T1/2β (half-life) (converted)

| SMILES | AUC(0-inf) | MRT inf | clearance | half-life (T1/2β (half-life)) | AUC(0-inf) (read-out: AUC0-∞) | clearance (read-out: CL (converted)) | MRT inf (read-out: MRT0-∞) | half-life [1] |
| --- | --- | --- | --- | --- | --- | --- | --- | --- |
| C[C@H](NC(=O)CNC(=O)[C@H](CCCNC(=N)N)NC(=O)CCCCCN1C(=O)C=CC1=O)C(=O)N[C@@H](CC(=O)O)C(=O)N[C@@H](CCCNC(=N)N)C(=O)N[C@@H](C)C(=O)NCC(=O)N[C@@H](CO)C(=O)N[C@@H](CO)C(=O)N[C@@H](CO)C(=O)N[C@@H](CO)C(=O)N[C@@H](CCCNC(=N)N)C(=O)NCC(=O)N[C@@H](CC(=O)O)C(=O)O [P14] ({Hexanoyl(6-maleimido)}-RGADRAGSSSSRGD-OH; C-terminus assumed) |  |  |  |  | 32200 ± 7560 ng·h/mL | 0.518 mL/min/kg | 57.5 ± 9.63 h | 39.85 ± 0.31 h |
| C[C@H](NC(=O)CNC(=O)[C@H](CCCNC(=N)N)NC(=O)CCCCCCCCc1ccc(N2C(=O)C=CC2=O)cc1)C(=O)N[C@@H](CC(=O)O)C(=O)N[C@@H](CCCNC(=N)N)C(=O)N[C@@H](C)C(=O)NCC(=O)NCC(=O)NCC(=O)NCC(=O)N[C@@H](CCCNC(=N)N)C(=O)NCC(=O)N[C@@H](CC(=O)O)C(=O)O [X44] (X40-RGADRAGGGGRGD-OH) | 26800 ± 8440 ng·h/mL | 48 ± 11.6 h | 0.622 mL/min/kg | 33.26 ± 0.28 h |  |  |  |  |
| C[C@H](NC(=O)CNC(=O)[C@H](CCCNC(=N)N)NC(=O)CCc1ccc(N2C(=O)C=CC2=O)cc1)C(=O)N[C@@H](CC(=O)O)C(=O)N[C@@H](CCCNC(=N)N)C(=O)N[C@@H](C)C(=O)NCC(=O)NCC(=O)NCC(=O)NCC(=O)N[C@@H](CCCNC(=N)N)C(=O)NCC(=O)N[C@@H](CC(=O)O)C(=O)O [X38] (X56-RGADRAGGGGRGD-OH) | 31400 ± 7550 ng·h/mL | 56.2 ± 11.2 h | 0.532 mL/min/kg | 38.94 ± 0.25 h |  |  |  |  |
| C[C@H](NC(=O)[C@H](CCCNC(=N)N)NC(=O)[C@H](CC(=O)O)NC(=O)CNC(=O)[C@H](CCCNC(=N)N)NC(=O)CCN1C(=O)C=CC1=O)C(=O)NCC(=O)NCC(=O)NCC(=O)NCC(=O)N[C@@H](CCCNC(=N)N)C(=O)NCC(=O)N[C@@H](CC(=O)O)C(=O)O [P7] ({Propanoyl(3-maleimido)}-RGDRAGGGGRGD-OH; C-terminus assumed) |  |  |  |  | 32000 ± 7820 ng·h/mL | 0.522 mL/min/kg | 57.2 ± 13.9 h | 39.63 ± 0.28 h |
| C[C@H](NC(=O)CNC(=O)[C@H](CCCNC(=N)N)NC(=O)CCc1ccccc1N1C(=O)C=CC1=O)C(=O)N[C@@H](CC(=O)O)C(=O)N[C@@H](CCCNC(=N)N)C(=O)N[C@@H](C)C(=O)NCC(=O)NCC(=O)NCC(=O)NCC(=O)N[C@@H](CCCNC(=N)N)C(=O)NCC(=O)N[C@@H](CC(=O)O)C(=O)O [X14] (X80-RGADRAGGGGRGD-OH) | 29100 ± 7660 ng·h/mL | 52 ± 13.5 h | 0.573 mL/min/kg | 36.04 ± 0.32 h |  |  |  |  |
| C[C@H](NC(=O)CNC(=O)[C@H](CCCNC(=N)N)NC(=O)CCCc1ccccc1N1C(=O)C=CC1=O)C(=O)N[C@@H](CC(=O)O)C(=O)N[C@@H](CCCNC(=N)N)C(=O)N[C@@H](C)C(=O)NCC(=O)NCC(=O)NCC(=O)NCC(=O)N[C@@H](CCCNC(=N)N)C(=O)NCC(=O)N[C@@H](CC(=O)O)C(=O)O [X15] (X81-RGADRAGGGGRGD-OH) | 34400 ± 8520 ng·h/mL | 61.5 ± 10 h | 0.485 mL/min/kg | 42.65 ± 0.25 h |  |  |  |  |
| C[C@H](NC(=O)CNC(=O)[C@H](CCCNC(=N)N)NC(=O)CCCCCN1C(=O)C=CC1=O)C(=O)N[C@@H](CC(=O)O)C(=O)N[C@@H](CCCNC(=N)N)C(=O)N[C@@H](C)C(=O)N[C@@H](CCC(=O)O)C(=O)N[C@@H](C)C(=O)N[C@@H](C)C(=O)N[C@@H](C)C(=O)N[C@@H](CCCCN)C(=O)N[C@@H](CCCNC(=N)N)C(=O)NCC(=O)N[C@@H](CC(=O)O)C(=O)O [P12] ({Hexanoyl(6-maleimido)}-RGADRAEAAAKRGD-OH; C-terminus assumed) |  |  |  |  | 34000 ± 6880 ng·h/mL | 0.49 mL/min/kg | 61 ± 10.1 h | 42.24 ± 0.29 h |

Now from value to molecule:

| AUC(0-inf) | MRT inf | clearance | half-life (T1/2β (half-life)) | AUC(0-inf) (read-out: AUC0-∞) | clearance (read-out: CL (converted)) | MRT inf (read-out: MRT0-∞) | half-life [1] | SMILES |
| --- | --- | --- | --- | --- | --- | --- | --- | --- |
| 33700 ± 7090 ng·h/mL | 60.4 ± 13.7 h | 0.495 mL/min/kg | 41.82 ± 0.29 h |  |  |  |  | C[C@H](NC(=O)CNC(=O)[C@H](CCCNC(=N)N)NC(=O)CCCCCOCCOCCOCCOCCN1C(=O)C=CC1=O)C(=O)N[C@@H](CC(=O)O)C(=O)N[C@@H](CCCNC(=N)N)C(=O)N[C@@H](C)C(=O)NCC(=O)NCC(=O)NCC(=O)NCC(=O)N[C@@H](CCCNC(=N)N)C(=O)NCC(=O)N[C@@H](CC(=O)O)C(=O)O [X74] (X27-RGADRAGGGGRGD-OH) |
|  |  |  |  | 24600 ± 7030 ng·h/mL | 0.677 mL/min/kg | 44.1 ± 11 h | 30.6 ± 0.31 h | CC(C)[C@H](NC(=O)[C@H](C)NC(=O)CNC(=O)[C@H](CCCNC(=N)N)NC(=O)CCCCCN1C(=O)C=CC1=O)C(=O)N[C@@H](CC(=O)O)C(=O)N[C@@H](CCCNC(=N)N)C(=O)N[C@@H](C)C(=O)NCC(=O)NCC(=O)NCC(=O)NCC(=O)N[C@@H](CCCNC(=N)N)C(=O)NCC(=O)N[C@@H](CC(=O)O)C(=O)O [P10] ({Hexanoyl(6-maleimido)}-RGAVDRAGGGGRGD-OH; C-terminus assumed) |
| 26700 ± 6960 ng·h/mL | 47.8 ± 13.9 h | 0.623 mL/min/kg | 33.15 ± 0.25 h |  |  |  |  | C[C@H](NC(=O)CNC(=O)[C@H](CCCNC(=N)N)NC(=O)CCCCCCOCCOCCOCCOCCN1C(=O)C=CC1=O)C(=O)N[C@@H](CC(=O)O)C(=O)N[C@@H](CCCNC(=N)N)C(=O)N[C@@H](C)C(=O)NCC(=O)NCC(=O)NCC(=O)NCC(=O)N[C@@H](CCCNC(=N)N)C(=O)NCC(=O)N[C@@H](CC(=O)O)C(=O)O [X75] (X53-RGADRAGGGGRGD-OH) |
| 27900 ± 8180 ng·h/mL | 50.1 ± 9.67 h | 0.597 mL/min/kg | 34.69 ± 0.34 h |  |  |  |  | C[C@H](NC(=O)CNC(=O)[C@H](CCCNC(=N)N)NC(=O)CCCCOCCN1C(=O)C=CC1=O)C(=O)N[C@@H](CC(=O)O)C(=O)N[C@@H](CCCNC(=N)N)C(=O)N[C@@H](C)C(=O)NCC(=O)NCC(=O)NCC(=O)NCC(=O)N[C@@H](CCCNC(=N)N)C(=O)NCC(=O)N[C@@H](CC(=O)O)C(=O)O [X52] (X12-RGADRAGGGGRGD-OH) |
| 27100 ± 8010 ng·h/mL | 48.5 ± 10.6 h | 0.615 mL/min/kg | 33.58 ± 0.24 h |  |  |  |  | C[C@H](NC(=O)CNC(=O)[C@H](CCCNC(=N)N)NC(=O)CCCCCCc1ccc(N2C(=O)C=CC2=O)cc1)C(=O)N[C@@H](CC(=O)O)C(=O)N[C@@H](CCCNC(=N)N)C(=O)N[C@@H](C)C(=O)NCC(=O)NCC(=O)NCC(=O)NCC(=O)N[C@@H](CCCNC(=N)N)C(=O)NCC(=O)N[C@@H](CC(=O)O)C(=O)O [X42] (X43-RGADRAGGGGRGD-OH) |
| 30300 ± 7110 ng·h/mL | 54.2 ± 9.93 h | 0.553 mL/min/kg | 37.55 ± 0.27 h |  |  |  |  | C[C@H](NC(=O)CNC(=O)[C@H](CCCNC(=N)N)NC(=O)CCCCOCCOCCN1C(=O)C=CC1=O)C(=O)N[C@@H](CC(=O)O)C(=O)N[C@@H](CCCNC(=N)N)C(=O)N[C@@H](C)C(=O)NCC(=O)NCC(=O)NCC(=O)NCC(=O)N[C@@H](CCCNC(=N)N)C(=O)NCC(=O)N[C@@H](CC(=O)O)C(=O)O [X59] (X3-RGADRAGGGGRGD-OH) |
| 29100 ± 8230 ng·h/mL | 52.1 ± 10.3 h | 0.573 mL/min/kg | 36.09 ± 0.28 h |  |  |  |  | C[C@H](NC(=O)CNC(=O)[C@H](CCCNC(=N)N)NC(=O)COCCOCCOCCOCCOCCOCCN1C(=O)C=CC1=O)C(=O)N[C@@H](CC(=O)O)C(=O)N[C@@H](CCCNC(=N)N)C(=O)N[C@@H](C)C(=O)NCC(=O)NCC(=O)NCC(=O)NCC(=O)N[C@@H](CCCNC(=N)N)C(=O)NCC(=O)N[C@@H](CC(=O)O)C(=O)O [X84] (X5-RGADRAGGGGRGD-OH) |
| 34500 ± 6960 ng·h/mL | 61.8 ± 14.3 h | 0.485 mL/min/kg | 42.83 ± 0.29 h |  |  |  |  | C[C@H](NC(=O)CNC(=O)[C@H](CCCNC(=N)N)NC(=O)CCCCCCCN1C(=O)C=CC1=O)C(=O)N[C@@H](CC(=O)O)C(=O)N[C@@H](CCCNC(=N)N)C(=O)N[C@@H](C)C(=O)NCC(=O)NCC(=O)NCC(=O)NCC(=O)N[C@@H](CCCNC(=N)N)C(=O)NCC(=O)N[C@@H](CC(=O)O)C(=O)O [X7] (X57-RGADRAGGGGRGD-OH) |
| 28000 ± 8160 ng·h/mL | 50.2 ± 10.5 h | 0.595 mL/min/kg | 34.76 ± 0.26 h |  |  |  |  | C[C@H](NC(=O)CNC(=O)[C@H](CCCNC(=N)N)NC(=O)COCCOCCOCCOCCN1C(=O)C=CC1=O)C(=O)N[C@@H](CC(=O)O)C(=O)N[C@@H](CCCNC(=N)N)C(=O)N[C@@H](C)C(=O)NCC(=O)NCC(=O)NCC(=O)NCC(=O)N[C@@H](CCCNC(=N)N)C(=O)NCC(=O)N[C@@H](CC(=O)O)C(=O)O [X70] (X35-RGADRAGGGGRGD-OH) |
